Laboratory results as given in paper PMC4448209 (Journal of Neuroinflammation, 2015).
Entries after “also recorded” stand apart in the source; their conditions may differ.

Columns and labels:
[1] = Hydrophobicity and solubility remark from peptide synthesis; type: physicochemical; conditions: likely reason why the 15-mer could not be productively synthetized
[2] = test system: AD patients; conditions: phase 3 studies released summer 2012; 10 (bapineuzumab), 11 (solanezumab); cited from earlier work
[3] = test system: IFNγ-secreting splenocytes; test: IFNγ ELISPOT, splenocytes of immunized C57BL/6 mice; type: in vivo, mouse
[4] = test system: 1C11 neuronal cells; test: IFNγ ELISPOT, restimulation with 1C11 neuronal cells; conditions: inferred from 1C11 cells and APPPS1 CD11b^+ microglia
Method: Nitrocellulose-based 96-well plates (Millipore, Billerica, MA, USA) were coated with anti-mouse IFN-γ capture mAb (1 μg/ml; clone R4-6A2, BD Biosciences) and saturated with complete culture medium. Responder splenocytes from individual mice were seeded at 10^6 or 5 × 10^5 cells/wells and cultured with medium alone or containing 10 μg/ml of peptide. In some experiments, splenocytes were stimulated with CD11b^+ microglia (3 × 10^4/wells) isolated from the brain of WT or APPPS1 mice, or with mitomycin-treated 1C11 cells (2 × 10^4/wells), a neuronal cell line expressing both APP and H-2^b MHC-I but not MHC-II molecules [25, 26]. Plates were incubated at 37 °C in 5 % CO2 for 18 h, washed, and incubated with biotinylated anti-mouse IFNγ detection mAb (0.5 μ/ml; clone XMG1.2, BD Biosciences). Alkaline phosphatase conjugated to streptavidin (Roche, France) (1/500 dilution, 100 μL/well) was then added. IFNγ-secreting cells were visualized using TNB/BCIP substrate (Promega, Charbonnières, France), and spots were counted using an automatic ELISPOT plate reader. Samples were assayed in triplicate, and the frequency of peptide-specific T cells was calculated after subtracting the mean number of spots obtained in the absence of peptide or cells.

[5] = test system: Aβ-specific antibodies; test: Anti-Aβ antibody ELISA, HLA-A2.1/HLA-DR1 mice; type: in vivo, mouse; conditions: Aβ1-42-coated plates, relative OD
Method: (§1) To measure serum anti-Aβ antibody titers in immunized mice, flat-bottom Nunc MaxiSorp ELISA plates were coated overnight at 4 °C with Aβ1-42 peptide (1 μg/ml in 0.1 M NaHCO3, pH 8.3). Plates were then washed twice with PBS-T and blocked with PBS-1 % BSA for 2 h at room temperature (RT). After two washes, plates were incubated for 2 h at RT with serum samples at various dilutions in blocking buffer. The Aβ1-17-specific mAb 6E10 (0.01 and 1 μg/ml) (Sigma-Aldrich, St Quentin Fallavier, France) was used as a positive internal reference sample. […] Results were expressed as relative OD = Experimental OD/Reference OD for 6E10 mAb in the same plate.

[6] = test system: animal models of AD; conditions: vaccination; cited from earlier work
Text: (§2) Alzheimer’s disease (AD) is a severe neurodegenerative disorder characterized by progressive loss of memory and cognitive functions. Accumulation of amyloid-β peptide (Aβ), both as soluble oligomers and in the form of amyloid plaques, plays a key role in initiating the pathogenic cascade in AD. […] In line with ...

[7] = test system: AD patients; conditions: cited from earlier work
Text: as §2

[8] = test system: Aβ-specific antibodies; test: Anti-Aβ antibody ELISA, C57BL/6 mice; type: in vivo, mouse
Method: as §1

[9] = test system: IFNγ-secreting splenocytes; conditions: HLA-A2.1/HLA-DR1 mice, Aβ/CpG/IFA; dendritic cells loaded with Aβ or overlapping nonamer peptides; data not shown

Aβ28-42: 15-mer candidate peptide, could not be productively synthetized (KGAIIGLMVGGVVIA; Amyloid-beta protein 42; UniProt P05067 699-713, looked up, fragment)
hydrophobicity [1]: very high hydrophobicity | solubility [1]: poor solubility

solanezumab: humanized anti-Aβ monoclonal antibody
improvement of cognitive performance [2]: inefficient at improving cognitive performance

GLMVGGVVI [Aβ33-41]
restimulation of Aβ33-41NP-specific CD8^+ T cells by exogenously loaded native peptide [3]: could not restimulate Aβ33-41NP-specific CD8^+ T cells when loaded exogenously | natural processing and presentation by microglia and neuronal cells [4]: can be naturally processed and presented in both microglia and neuronal cells; also recorded: appears to be naturally processed and presented to immune effectors

Aβ1-42: Human Aβ1-42 peptide
Aβ-specific antibodies in serum [5]: Aβ-specific antibodies were detected | benefit in animal models of AD [6]: of benefit in animal models of AD | beneficial effects in AD patients ([7]; AN1792): modest beneficial effects | patients developing meningoencephalitis ([7]; human, in vivo): 6% | anti-Aβ antibody isotypes [8]: predominantly of IgG1 and IgG2b isotypes | CD8^+ T cell response [9]: did not trigger any CD8^+ T cells able to recognize dendritic cells loaded with either Aβ or overlapping nonamer peptides
